Assay results as given in patent publication US20240408222A1, “COMPOUNDS, PHARMACEUTICAL COMPOSITIONS, AND METHODS FOR THE TREATMENT, PREVENTION, OR MANAGEMENT OF HYPERPRO[…]” (VINCERX PHARMA GMBH, priority 2021, published 2024).

Tests used:
NCI H292 [1] = test: Cytotoxicity in vitro in presence/absence of cathepsin B; format: cell-based, human
HT29 [2] = test: as above; format: cell-based, human
cathepsin B = cathepsin B (Homo sapiens, UniProt P07858); test: Biochemical cathepsin B cleavage assay (metabolite detection by RP-HPLC)
Experimental: Incubation of samples starts with addition of cathepsin B solution (2.5 μg in […] 50 mM sodium phosphate buffer, pH 6.0/2 mM DTT). The incubation is performed at 40° C., and after 16 h incubation a 40 μL sample is taken and added to 80 μL ice-cold methanol. […] The metabolite (product) and the parent compound (educt) is measured.

SUM149 [3] = test: Cytotoxicity assay (Version 2, automated, AC50) with/without neutrophil elastase; format: cell-based; conditions: Version 2, activity concentration at −50%
How it was run: (§1)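 Metabolic activity is measured by MTT dye formation (570 nm) after cells are exposed for 72 h to compound alone or compound plus 10 nM elastase, spanning 10^−5 to 10^−13 M in triplicate. A 4-parameter Hill fit of normalized data yields the AC50.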

786-O = test: as above; format: cell-based, human; conditions: Version 2, activity concentration at −50%
How it was run: as §1

HT29 [4] = test: as above; format: cell-based, human; conditions: Version 2, activity concentration at −50%
How it was run: as §1

NCI H292 [5] = test: as above; format: cell-based, human; conditions: Version 2, activity concentration at −50%
How it was run: as §1

SUM149 [6] = test: Cytotoxicity in vitro in presence/absence of cathepsin B; format: cell-based
SUM149 [7] = test: Cytotoxicity in vitro in presence/absence of legumain; format: cell-based
rec. human legumain = rec. human legumain (Homo sapiens, UniProt Q99538); conditions: for metabolite formation after incubation with legumain: 16 h incubation, 37° C., pH 5,0; for metabolite formation without addition of active legumain: control without active legumain
Experimental: 10 μg rec. human legumain are added to 100 μL activation buffer (50 mM sodium acetate buffer/100 mM NaCl, pH 4,0) and incubated for 2 h at 37° C., before 4.9 mL assay buffer (50 mM MES buffer/250 mM NaCl, pH 5,0) is added (final concentration of rec. hum. legumain: 2 μg/mL). For the selected sample, activated legumain is added to the compound solution. Then the solution is incubated at 37° C. At 16 h-a 50 μL sample is taken and added to 100 μL ice-cold methanol. For the untreated control (0 h) ice-cold methanol is pipetted in a tube before the legumain and compound solution are added. Samples can be stored at −20° C. or analyzed directly by HPLC or LCMS. The metabolite and the parent compound (educt) are measured.
Samples from enzymatic assays are added to the double volume of methanol and incubated for at least 30 min at −20° C. to precipitate proteins. Samples are then centrifuged for 10 min, 16100×g at 4° C. and analyzed by RP-HPLC using a gradient (PLRP-S-A1 79.0% PLRP-S—B1 21.0%, duration 24 min). After the centrifugation the supernatant is collected, calibration curves are obtained using the respective compound and the corresponding metabolite solution. A 10 mM DMSO stock solution is diluted with Methanol to achieve the chosen end concentration.

NCI H292 [8] = test: Cytotoxicity in vitro in presence/absence of legumain; format: cell-based, human
HT29 [9] = test: as above; format: cell-based, human
in vivo = conditions: male, rat, plasma, iv
Experimental: Male rats (n=3) were given an intravenous 0.5 or 2.0 mg/kg bolus dose of test article dissolved in plasma with 1% DMSO and 2% ethanol (C30 only). Serial blood samples were collected up to 24 hours post-dose. Plasma was harvested from blood samples and stored frozen until sample analysis. Test article plasma concentrations were analyzed by LC/MS/MS.

[10] = SUM149, with (+) neutrophil elastase
[11] = SUM149, without (−) neutrophil elastase
[12] = without (−) neutrophil elastase
[13] = HT29, with (+) neutrophil elastase
[14] = HT29, without (−) neutrophil elastase
[15] = NCI H292, with (+) neutrophil elastase
[16] = NCI H292, without (−) neutrophil elastase

Sequence of rec. human legumain (Q99538 18-323 limits assumed): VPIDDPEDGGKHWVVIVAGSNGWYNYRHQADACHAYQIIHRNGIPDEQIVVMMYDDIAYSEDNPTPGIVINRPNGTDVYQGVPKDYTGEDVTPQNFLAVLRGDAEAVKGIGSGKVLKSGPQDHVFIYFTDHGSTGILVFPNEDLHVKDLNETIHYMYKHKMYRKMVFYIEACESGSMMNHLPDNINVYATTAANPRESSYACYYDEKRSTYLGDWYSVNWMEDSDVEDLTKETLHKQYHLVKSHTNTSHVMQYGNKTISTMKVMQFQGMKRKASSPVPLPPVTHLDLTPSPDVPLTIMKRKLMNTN

Row | Molecule | AC50 (SUM149 [3]; [10]) [nM] | AC50 (SUM149 [3]; [11]) [nM] | AC50 (786-O; with (+) neutrophil elastase) [nM] | AC50 (786-O; [12]) [nM] | AC50 (HT29 [4]; [13]) [nM] | AC50 (HT29 [4]; [14]) [nM] | AC50 (NCI H292 [5]; [15]) [nM] | AC50 (NCI H292 [5]; [16]) [nM] | IC50 (SUM149 [7]; SUM149, with (+) legumain) [nM] | IC50 (SUM149 [7]; SUM149, without (−) legumain) [nM] | metabolite formation after incubation with legumain (rec. human legumain) | metabolite formation without addition of active legumain (rec. human legumain) | IC50 (NCI H292 [8]; NCI H292, with (+) legumain) [nM] | IC50 (NCI H292 [8]; NCI H292, without (−) legumain) [nM] | IC50 (HT29 [9]; HT29, with (+) legumain) [nM] | IC50 (HT29 [9]; HT29, without (−) legumain) [nM] | AUC (in vivo; 2 mg/kg) [ng·h/mL] | Vd (in vivo; 2 mg/kg) [L/kg] | clearance (in vivo; 2 mg/kg) [mL/min/kg] | half-life (in vivo; 2 mg/kg) [h] | further results
1 | CCCNC(=O)Nc1cccc(S(=O)(=O)Nc2cccc([C@@H](CC(=O)[O-])NC(=O)Nc3ccc(NC(=O)NCCOCCOCCOCCC(=O)N[C@H](C(=O)N[C@@H](CCCNC(N)=O)C(=O)N=[S@@](C)(=O)Cc4cc5cc(c4)OCCCCOc4cc(F)ccc4-c4nc(ncc4F)N5)C(C)C)cc3)c2)c1.[Na+] [Compound 7, sodium N-{14-[4-({[(1R)-2-carboxylato-1-{3-[({3-[(propylcarbamoyl)amino]phenyl}sulfonyl)amino]phenyl}ethyl]carbamoyl}amino)anilino]-14-oxo-4,7,10-trioxa-13-azatetradecan-1-oyl}-L-valyl-N^5-carbamoyl-N—[(S)-{[16,20-difluoro-2,3,4,5-tetrahydro-12H-13,17-(azeno)-11,7-(metheno)-1,6,12,14-benzodioxadiazacyclononadecin-9-yl]methyl}(methyl)oxido-lambda^6-sulfanylidene]-L-ornithinamide] | 11 to 100 | 11 to 100 | 11 to 100 | 11 to 100 | 11 to 100 | 11 to 100 | 100 to 1000 | 100 to 1000 | – | – | – | – | – | – | – | – | – | – | – | – | IC50 (NCI H292 [1]; NCI H292, with (+) cathepsin): 11 to 100 nM; IC50 (NCI H292 [1]; NCI H292, without (−) cathepsin): 11 to 100 nM; IC50 (HT29 [2]; HT29, with (+) cathepsin): > 100 nM; IC50 (HT29 [2]; HT29, without (−) cathepsin): > 100 nM; metabolite detected after incubation with cathepsin B (cathepsin B; 16 h incubation, 40° C., pH 6.0): 16%; metabolite formation without addition of active cathepsin B (cathepsin B; control without active cathepsin B): no metabolite formation is detected; IC50 (SUM149 [6]; SUM149, with (+) cathepsin): 11 to 100 nM; IC50 (SUM149 [6]; SUM149, without (−) cathepsin): > 100 nM
2 | CCCNC(=O)Nc1cccc(S(=O)(=O)Nc2cccc([C@@H](CC(=O)[O-])NC(=O)Nc3ccc(NC(=O)NCCOCCOCCOCCC(=O)N[C@@H](C)C(=O)N(C)[C@@H](C)C(=O)N[C@@H](CC(=O)N=[S@@](C)(=O)Cc4cc5cc(c4)OCCCCOc4cc(F)ccc4-c4nc(ncc4F)N5)C(N)=O)cc3)c2)c1.[Na+] [Compound 8, sodium N-{14-[4-({[(1R)-2-carboxylato-1-{3-[({3-[(propylcarbamoyl)amino]phenyl}sulfonyl)amino]phenyl}ethyl]carbamoyl}amino)anilino]-14-oxo-4,7,10-trioxa-13-azatetradecan-1-oyl}-L-alanyl-N-methyl-L-alanyl-N′—[(S)-{[16,20-difluoro-2,3,4,5-tetrahydro-12H-13,17-(azeno)-11,7-(metheno)-1,6,12,14-benzodioxadiazacyclononadecin-9-yl]methyl}(methyl)oxido-lambda^6-sulfanylidene]-L-aspartamide] | 100 to 1000 | > 1000 | 100 to 1000 | > 1000 | 11 to 100 | > 1000 | 100 to 1000 | 100 to 1000 | 11 to 100 | 11 to 100 | complete metabolite formation | no metabolite formation is detected | 1.1 to 10 | 11 to 100 | 11 to 100 | 11 to 100 | – | – | – | – | –
3 | CCCNC(=O)Nc1cccc(S(=O)(=O)Nc2cccc([C@@H](CC(=O)O)NC(=O)Nc3ccc(NC(=O)NCCOCCOCCOCCC(=O)N[C@@H](CC(=O)O)C(=O)N4CCC[C@H]4C(=O)N[C@H](C(=O)N=S(C)(=O)Cc4cc5nc(c4)OCCCOc4cc(F)ccc4-c4cc(ncc4F)N5)C(C)C)cc3)c2)c1 (single isomer, unassigned) [Compound 41, disodium 1-{(2S)-2-(carboxylatomethyl)-17-[4-({[(1R)-2-carboxylato-1-{3-[({3-[(propylcarbamoyl)amino]phenyl}sulfonyl)amino]phenyl}ethyl]carbamoyl}amino)anilino]-4,17-dioxo-7,10,13-trioxa-3,16-diazaheptadecan-1-oyl}-L-prolyl-N—[(R*)—{[15,19-difluoro-3,4-dihydro-2H,11H-10,6-(azeno)-12,16-(metheno)-1,5,11,13-benzodioxadiazacyclooctadecin-8-yl]methyl}(methyl)oxido-lambda^6-sulfanylidene]-L-valinamide] | – | – | – | – | – | – | – | – | – | – | – | – | – | – | – | – | 1000 to 10000 | > 0.1 | 0.5 to 5 | 10 to 20 | –
4 | CCCNC(=O)Nc1cccc(S(=O)(=O)Nc2cccc([C@H](CC(=O)O)NC(=O)Nc3ccc(NC(=O)NCCOCCOCCOCCC(=O)N[C@@H](CCCCNC(=O)CCOCCOCCOCCNC(=O)Nc4ccc(NC(=O)N[C@H](CC(=O)O)c5cccc(NS(=O)(=O)c6cccc(NC(=O)NCCC)c6)c5)cc4)C(=O)NCCOCCOCCOCCC(=O)N[C@@H](CC(=O)O)C(=O)N4CCC[C@H]4C(=O)N[C@H](C(=O)N=S(C)(=O)Cc4cc5nc(c4)OCCCOc4cc(F)ccc4-c4cc(ncc4F)N5)C(C)C)cc3)c2)c1 (relative stereo) [Compound 33] | – | – | – | – | – | – | – | – | – | – | – | – | – | – | – | – | 50000 to 150000 | > 0.1 | 0.5 to 5 | 10 to 20 | –
5 | CCCNC(=O)Nc1cccc(S(=O)(=O)Nc2cccc([C@@H](CC(=O)O)NC(=O)Nc3ccc(NC(=O)NCCOCCOCCOCCC(=O)N[C@@H](CC(=O)O)C(=O)N4CCC[C@H]4C(=O)N[C@H](C(=O)N=[S@](C)(=O)Cc4cc5cc(c4)O[C@H](C)CCOc4cc(F)ccc4-c4nc(ncc4F)N5)C(C)C)cc3)c2)c1 (relative stereo) [Compound 48] | – | – | – | – | – | – | – | – | – | – | – | – | – | – | – | – | – | – | – | – | AUC (in vivo; 0.5 mg/kg): 1000 to 10000 ng·h/mL; Vd (in vivo; 0.5 mg/kg): 0.03 to 0.1 L/kg; clearance (in vivo; 0.5 mg/kg): > 5 mL/min/kg; half-life (in vivo; 0.5 mg/kg): 0.1 to 1 h
6 | Sodium N-{14-[4-({[(1S)-2-carboxylato-1-{3-[({3-[(propylcarbamoyl)amino]phenyl}sulfonyl) amino]phenyl}ethyl]carbamoyl}amino)anilino]-14-oxo-4,7,10-trioxa-13-azatetradecan-1-oyl}-L-alanyl-N-methyl-L-alanyl-N′—[(S)-{[16,20-difluoro-2,3,4,5-tetrahydro-12H-13,17-(azeno)-11,7-(metheno)-1,6,12,14-benzodioxadiazacyclononadecin-9-yl]methyl} (methyl)oxido-lambda^6-sulfanylidene]-L-aspartamide [Compound 13] | 11 to 100 | > 1000 | 11 to 100 | > 1000 | 11 to 100 | > 1000 | 100 to 1000 | 100 to 1000 | 11 to 100 | 11 to 100 | complete metabolite formation | no metabolite formation is detected | 11 to 100 | 11 to 100 | 11 to 100 | 11 to 100 | – | – | – | – | –
